Our source for the IC50 values is patent publication US6197768A, “Pyridocarbazole derivatives having cgmp-pde inhibitory activity” (Mochida Pharmaceutical Co., Ltd., priority 1996, dated 2001).

The structures appear in SMILES notation. Some results are limits rather than exact numbers.

In general, IC50 refers to the concentration at which inhibition is half-maximal.

The subject of test [1] is PDE type I. The test can be described thus: PDE Inhibiting Activity, type I. The following applies: PDE type I from canine aorta, 1 μM substrate, pH 7.5; read-out: Inhibition Activity IC50, Type I. It is filed as biochemical, dog (canine aorta). Here is the method:
(§1) On the basis of the method of Lugnier et al. (Biochem. Pharmacol., 35, 1743-1751, 1986), PDE was purified from the aorta in a dog. The canine aorta was minced and homogenized with a Waring Blender and a glass homogenizer in six volumes of a Tris-HCl buffer solution (pH 7.5, 20 mM) containing 2 mM magnesium acetate, 5 mM ethylenediaminetetraacetic acid (EDTA), 100 μg/mL of phenylmethylsulforyl fluoride and 15 mM 2-mercaptoethanol (2-ME), and centrifuged at 1200 xg for 30 min. The supernatant was separated and salted out with ammonium sulfate which was added to 45% saturation. The resulting precipitated fraction was resuspended in a Tris-HCl buffer solution (pH 7.5, 20 mM) containing 2 mM magnesium acetate and 1 mM 2-ME, dialyzed overnight and applied to a DEAE-trisacryl column (DEAE […] M:IBF). By elution with a sodium chloride gradient (0-0.4 M), PDE types V and III were separated from the other isozymes. The supernatant fraction of 45% saturated ammonium sulfate was further mixed with ammonium sulfate to 65% saturation and salted out. The resulting precipitated fraction was similarly applied to the DEAE-trisacryl column and eluted by a sodium chloride gradient (0-0.4 M) so as to separate PDE type I.
(§2) The thus obtained PDE types V, III and I were measured for their activity in accordance with the method of Thompson et al. (Adv. Cyclic Nucleotide Res., 10, 69-72, 1979) and the method of Wells et al. (Biochim. Biophys. Acta, 384, 430-443, 1975). Specifically, a purified PDE sample was added to 50 mM Tris-HCl buffer solution (pH 7.5) containing 1 μM of substrate cGMP or cAMP (containing tritium-labelled cGMP or cAMP), 1 mM EGTA and 2 mM magnesium acetate. For PDE activity measurement, enzymatically produced 5' GMP or 5' AMP was further hydrolyzed into guanosine or adenosine with snake venom and separated from the substrate by means of an ion-exchange resin (Dowex 1-X2), followed by measuring with a scintillation counter. The activity of each test compound was determined as a percentage of the DPE activity measured when it was added as a dimethyl sulfoxide solution (DMSO) and its IC50 (50% inhibition concentration) was calculated by the probit method. The final concentration of DMSO was adjusted to be no more than 2% in consideration of the effect on PDE activity.

For test [2], the target named is T1, PDE type III (Canis lupus familiaris, UniProt A0A8I3NYE0).
T1 construct: PDE was purified from the aorta in a dog; from tissue; host or cells: dog aorta
T1 sequence (A0A8I3NYE0 1-1135): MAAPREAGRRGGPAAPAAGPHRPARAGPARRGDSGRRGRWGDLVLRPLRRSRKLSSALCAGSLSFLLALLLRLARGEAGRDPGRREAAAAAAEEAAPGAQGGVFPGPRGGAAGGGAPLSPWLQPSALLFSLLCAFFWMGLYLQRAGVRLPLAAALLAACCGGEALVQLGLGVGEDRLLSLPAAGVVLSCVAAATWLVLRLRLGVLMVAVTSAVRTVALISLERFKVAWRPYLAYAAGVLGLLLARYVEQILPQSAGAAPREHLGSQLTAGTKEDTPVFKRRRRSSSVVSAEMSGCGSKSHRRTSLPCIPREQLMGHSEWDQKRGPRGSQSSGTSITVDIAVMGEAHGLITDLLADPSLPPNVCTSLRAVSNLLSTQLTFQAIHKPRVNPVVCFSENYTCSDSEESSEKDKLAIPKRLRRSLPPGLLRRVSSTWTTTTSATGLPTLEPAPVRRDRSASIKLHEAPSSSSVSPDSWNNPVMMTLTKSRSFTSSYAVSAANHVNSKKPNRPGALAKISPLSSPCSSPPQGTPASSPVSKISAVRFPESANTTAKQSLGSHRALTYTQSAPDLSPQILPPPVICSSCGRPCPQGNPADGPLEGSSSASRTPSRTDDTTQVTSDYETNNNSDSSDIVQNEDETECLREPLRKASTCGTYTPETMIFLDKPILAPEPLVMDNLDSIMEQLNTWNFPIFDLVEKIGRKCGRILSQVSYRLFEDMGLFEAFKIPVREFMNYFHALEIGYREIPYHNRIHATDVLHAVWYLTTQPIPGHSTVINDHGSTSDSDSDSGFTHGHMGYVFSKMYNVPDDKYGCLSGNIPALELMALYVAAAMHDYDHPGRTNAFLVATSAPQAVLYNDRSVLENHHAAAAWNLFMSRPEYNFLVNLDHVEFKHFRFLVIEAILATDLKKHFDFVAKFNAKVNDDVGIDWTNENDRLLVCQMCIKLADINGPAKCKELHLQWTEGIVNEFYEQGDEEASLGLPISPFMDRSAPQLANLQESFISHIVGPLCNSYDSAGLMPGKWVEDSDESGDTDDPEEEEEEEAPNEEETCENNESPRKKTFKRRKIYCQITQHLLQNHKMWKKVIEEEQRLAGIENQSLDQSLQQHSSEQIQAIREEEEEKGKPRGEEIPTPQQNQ
The test can be described thus: PDE Inhibiting Activity, type III. The following applies: PDE type III from canine aorta, 1 μM substrate, pH 7.5; read-out: Inhibition Activity IC50, Type III. The test is classed as biochemical, dog (canine aorta). Here is the method: as §1, §2

Take `O=c1c(Cc2cccnc2)cn2c3ccc(Br)cc3c3cc(O)cc1c32` [Example 2, 10-bromo-2-hydroxy-5-(3-pyridylmethyl)-4H-pyrido [3,2,1-jk]carbazole-4-one]: the 50% inhibitory concentration (IC50) was more than 30 µM in test [1] and 3.6 µM in test [2].

For the compound `CC(C)OC(=O)COc1cc2c(=O)c(Cc3cccnc3)cn3c4ccc(Br)cc4c(c1)c23` [Example 4, 10-bromo-2-i-propoxycarbonylmethyloxy-5-(3-pyridylmethyl)-4H-pyrido [3,2,1-jk]carbazole-4-one], the IC50 in test [1] is more than 30 µM; in test [2], 6.8 µM.

In the case of `CCOC(=O)COc1cc2c(=O)c(Cc3cccnc3)cn3c4ccc(Br)cc4c(c1)c23` [Example 5, 10-bromo-2-ethoxycarbonylmethyloxy-5-(3-pyridylmethyl)-4H-pyrido [3,2,1-jk]carbazole-4-one], the values for the half-inhibitory concentration (IC50) in test [1] and in test [2] were more than 30 µM and 19 µM, respectively.

Regarding `O=c1c(Cc2cccnc2)cn2c3ccc(Br)cc3c3cc(OCc4cccnc4)cc1c32` [Example 18, 10-bromo-5-(3-pyridylmethyl)-2-(3-pyridylmethyloxy)-4H-pyrido [3,2,1-jk]carbazole-4-one], the IC50 in test [1] is more than 30 µM; in test [2], 1.9 µM.

For the compound `O=c1c(Cc2cccnc2)cn2c3ccc(Br)cc3c3cc(OCc4ccccc4)cc1c32` [Example 22, 2-benzyloxy-10-bromo-5-(3-pyridylmethyl)-4H-pyrido [3,2,1-jk]carbazole-4-one], the half-maximal inhibitory concentration (IC50) in test [1] is more than 30 µM; in test [2] it was 11 µM.

Turning to `COc1cc2c(=O)c(C)cn3c4ccc(Br)cc4c(c1)c23` [Example 48, 10-bromo-2-methoxy-5-methyl-4H-pyrido [3,2,1-jk]carbazole-4-one], the IC50 in test [1] and in test [2] was more than 100 µM throughout.

As for `Cc1cn2c3ccc(Br)cc3c3cc(O)cc(c1=O)c32` [Example 49, 10-bromo-2-hydroxy-5-methyl-4H-pyrido [3,2,1-jk]carbazole-4-one], the figures for the IC50 in test [1] and in test [2] were more than 300 µM and 198 µM, respectively.

For `Cc1cn2c3ccc(Br)cc3c3cc(OCC(=O)OC(C)C)cc(c1=O)c32` [Example 51], the concentration for half-maximal inhibition (IC50) in test [1] and in test [2] was more than 30 µM throughout.

As to `CCOC(=O)COc1cc2c(=O)c(C)cn3c4ccc(Br)cc4c(c1)c23` [Example 52, 10-bromo-2-ethoxycarbonylmethyloxy-5-methyl-4H-pyrido [3,2,1-jk]carbazole-4-one], the IC50 in test [1] and in test [2] was more than 30 µM in each case.

For `CCCC(=O)COc1cc2c(=O)c(C)cn3c4ccc(Br)cc4c(c1)c23` [Example 57, 10-bromo-2-(2-oxopentyloxy)-5-methyl-4H-pyrido [3,2,1-jk]carbazole-4-one], the half-inhibitory concentration (IC50) in test [1] and in test [2] was more than 30 µM in each case.

`COc1cc2c(=O)ccn3c4ccc(Br)cc4c(c1)c23` [Example 58, 10-bromo-2-methoxy-4H-pyrido [3,2,1-jk]carbazole-4-one]: the IC50 in test [1] and in test [2] was more than 10 µM in each case.

On to `O=c1ccn2c3ccc(Br)cc3c3cc(O)cc1c32` [Example 59, 10-bromo-2-hydroxy-4H-pyrido [3,2,1-jk]carbazole-4-one], for which the concentration for half-maximal inhibition (IC50) in test [1] and in test [2] was more than 100 µM each time.

On to `CC(C)OC(=O)COc1cc2c(=O)ccn3c4ccc(Br)cc4c(c1)c23` [Example 61, 10-bromo-2-i-propoxycarbonylmethyloxy-4H-pyrido [3,2,1-jk]carbazole-4-one], for which the half-maximal inhibitory concentration (IC50) in test [1] and in test [2] was more than 30 µM each time.

Regarding `CCOC(=O)COc1cc2c(=O)ccn3c4ccc(Br)cc4c(c1)c23` [Example 62, 10-bromo-2-ethoxycarbonylmethyloxy-4H-pyrido [3,2,1-jk]carbazole-4-one], the half-inhibitory concentration (IC50) in test [1] and in test [2] was more than 30 µM each time.

For the compound `O=C(O)COc1cc2c(=O)ccn3c4ccc(Br)cc4c(c1)c23` [Example 63, 10-bromo-2-carboxymethyloxy-4H-pyrido [3,2,1-jk]carbazole-4-one], the IC50 in test [1] and in test [2] was more than 30 µM throughout.

As for `O=c1ccn2c3ccc(Br)cc3c3cc(OCc4cccnc4)cc1c32` [Example 64, 10-bromo-2-(3-pyridylmethyloxy)-4H-pyrido [3,2,1-jk]carbazole-4-one], the 50% inhibitory concentration (IC50) in test [1] was more than 100 µM; in test [2] it was 81 µM.

Turning to `O=c1ccn2c3ccc(Br)cc3c3cc(OCc4ccccc4)cc1c32` [Example 66], the IC50 in test [1] and in test [2] was more than 30 µM in each case.

For `O=c1ccn2c3ccc(Br)cc3c3cc(OCc4ncon4)cc1c32` [Example 76], the half-maximal inhibitory concentration (IC50) in test [1] and in test [2] was more than 30 µM in each case.

Take `CC(=O)Oc1cc2c(=O)ccn3c4ccc(Br)cc4c(c1)c23` [Example 82]: the IC50 in test [1] and in test [2] was more than 100 µM throughout.

In the case of `CCCC(=O)COc1cc2c(=O)ccn3c4ccc(Br)cc4c(c1)c23` [Example 83, 10-bromo-2-(2-oxopentyloxy)-4H-pyrido [3,2,1-jk]carbazole-4-one], the half-maximal inhibitory concentration (IC50) in test [1] and in test [2] was more than 30 µM in each case.

In the case of `COc1cc2c(=O)c(Cc3cccnc3)cn3c4cc(Br)ccc4c(c1)c23` [Example 101, 9-bromo-2-methoxy-5-(3-pyridylmethyl)-4H-pyrido [3,2,1-jk]carbazole-4-one], the IC50 in test [1] and in test [2] was more than 30 µM throughout.

`CC(C)(C)OC(=O)COc1cc2c(=O)c(Cc3cccnc3)cn3c4cc(Br)ccc4c(c1)c23` [Example 103, 9-bromo-2-t-butoxycarbonyl-methyloxy-5-(3-pyridylmethyl)-4H-pyrido [3,2,1-jk]carbazole-4-one]: in test [2], the IC50 was more than 30 µM.

Regarding `O=C(O)COc1cc2c(=O)c(Cc3cccnc3)cn3c4cc(Br)ccc4c(c1)c23` [Example 104, 9-bromo-2-carboxymethyloxy-5-(3-pyridylmethyl)-4H-pyrido [3,2,1-jk]carbazole-4-one], the IC50 is more than 30 µM in test [1] and 3.5 µM in test [2].

Turning to `CC(=O)OCc1cncc(COc2cc3c(=O)c(Cc4cccnc4)cn4c5cc(Br)ccc5c(c2)c34)c1` [Example 106, 2-(5-acetoxymethyl-3-pyridylmethyloxy)-9-bromo-5-(3-pyridylmethyl)-4H-pyrido [3,2,1-jk]carbazole-4-one], the IC50 in test [1] and in test [2] was more than 30 µM throughout.

In the case of `O=c1c(Cc2cccnc2)cn2c3cc(Br)ccc3c3cc(OCc4cncc(CO)c4)cc1c32` [Example 107, 9-bromo-2-(5-hydroxymethyl-3-pyridylmethyloxy)-5-(3-pyridylmethyl)-4H-pyrido [3,2,1-jk]carbazole-4-one], the half-inhibitory concentration (IC50) in test [1] and in test [2] was more than 30 µM each time.
